# Measured values from patent publication US20260262643A1, “HERBICIDAL BENZOXAZINES” (FMC CORPORATION, priority 2022, published 2026).
# Legend:
# [1] = tested on: wheat; test: Test C preemergence; format: in vivo, Triticum aestivum
# Procedure, shortened: (§1)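 Seeds in loam–sand blend received preemergence directed soil spray of test chemicals in non-phytotoxic solvent with surfactant; postemergence treatment was applied at one- to two-leaf stage (2–10 cm). After 10 days in greenhouse, injury rated visually versus untreated controls, 0 (no effect) to 100 (complete control).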
# [2] = tested on: green foxtail; test: Test C postemergence; format: in vivo, Setaria viridis; details: 10 days, 0 to 100 scale (0 no effect, 100 complete control)
# Procedure, shortened: as §1
# [3] = tested on: wheat; test: Test C postemergence; format: in vivo, Triticum aestivum; details: 10 days, 0 to 100 scale (0 no effect, 100 complete control)
# Procedure, shortened: as §1
# [4] = tested on: oat, wild; test: Test C postemergence; format: in vivo, Avena fatua; details: 10 days, 0 to 100 scale (0 no effect, 100 complete control)
# Procedure, shortened: as §1
# [5] = tested on: corn; test: Test C preemergence; format: in vivo, Zea mays
# Procedure, shortened: as §1
# [6] = tested on: pigweed, palmer; test: Test C postemergence; format: in vivo, Amaranthus palmeri; details: 10 days, 0 to 100 scale (0 no effect, 100 complete control)
# Procedure, shortened: as §1
# [7] = tested on: ragweed; test: Test C preemergence; format: in vivo, Ambrosia artemisiifolia
# Procedure, shortened: as §1
# [8] = tested on: blackgrass; test: Test C postemergence; format: in vivo, Alopecurus myosuroides; details: 10 days, 0 to 100 scale (0 no effect, 100 complete control)
# Procedure, shortened: as §1
# [9] = tested on: horseweed; test: Test C postemergence; format: in vivo, Erigeron canadensis; details: 10 days, 0 to 100 scale (0 no effect, 100 complete control)
# Procedure, shortened: as §1
# [10] = tested on: pigweed, palmer; test: Test C preemergence; format: in vivo, Amaranthus palmeri
# Procedure, shortened: as §1
# [11] = tested on: rice; test: Test D flooded paddy test; format: in vivo, Oryza sativa; details: 250 g ai/ha, applied to paddy water, visual rating after 13 to 14 days, scale 0 to 100 (0 no effect, 100 complete control)
# Procedure, shortened: (§2)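 Compounds go straight into paddy water over 2-leaf plants in pots flooded to 3 cm. Greenhouse holding lasts 13 to 14 days. Injury is scored by eye against controls from 0 (none) to 100 (complete control).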
# [12] = tested on: soybean; test: Test C preemergence; format: in vivo, Glycine max
# Procedure, shortened: as §1
# [13] = tested on: corn; test: Test C postemergence; format: in vivo, Zea mays; details: 10 days, 0 to 100 scale (0 no effect, 100 complete control)
# Procedure, shortened: as §1
# [14] = tested on: ryegrass, Italian; test: Test C postemergence; format: in vivo, Lolium multiflorum; details: 10 days, 0 to 100 scale (0 no effect, 100 complete control)
# Procedure, shortened: as §1
# [15] = tested on: sedge, umbrella; test: Test D flooded paddy test; format: in vivo, Cyperus difformis; details: 250 g ai/ha, applied to paddy water, visual rating after 13 to 14 days, scale 0 to 100 (0 no effect, 100 complete control)
# Procedure, shortened: as §2
# [16] = tested on: barnyardgrass; test: Test C postemergence; format: in vivo, Echinochloa crusgalli; details: 10 days, 0 to 100 scale (0 no effect, 100 complete control)
# Procedure, shortened: as §1
# [17] = tested on: ducksalad; test: Test D flooded paddy test; format: in vivo, Heteranthera limosa; details: 250 g ai/ha, applied to paddy water, visual rating after 13 to 14 days, scale 0 to 100 (0 no effect, 100 complete control)
# Procedure, shortened: as §2
# [18] = tested on: kochia; test: Test C preemergence; format: in vivo, Bassia scoparia
# Procedure, shortened: as §1
# [19] = tested on: barnyardgrass; test: Test C preemergence; format: in vivo, Echinochloa crusgalli
# Procedure, shortened: as §1
# [20] = tested on: green foxtail; test: Test C preemergence; format: in vivo, Setaria viridis
# Procedure, shortened: as §1
# [21] = tested on: kochia; test: Test C postemergence; format: in vivo, Bassia scoparia; details: 10 days, 0 to 100 scale (0 no effect, 100 complete control)
# Procedure, shortened: as §1
# [22] = tested on: galium; test: Test C postemergence; format: in vivo, Galium aparine; details: 10 days, 0 to 100 scale (0 no effect, 100 complete control)
# Procedure, shortened: as §1
# [23] = tested on: ragweed; test: Test C postemergence; format: in vivo, Ambrosia artemisiifolia; details: 10 days, 0 to 100 scale (0 no effect, 100 complete control)
# Procedure, shortened: as §1
# [24] = tested on: soybean; test: Test C postemergence; format: in vivo, Glycine max; details: 10 days, 0 to 100 scale (0 no effect, 100 complete control)
# Procedure, shortened: as §1
# [25] = tested on: barnyardgrass; test: Test D flooded paddy test; format: in vivo, Echinochloa crus-galli; details: 250 g ai/ha, applied to paddy water, visual rating after 13 to 14 days, scale 0 to 100 (0 no effect, 100 complete control)
# Procedure, shortened: as §2
# [26] = tested on: oat, wild; test: Test C preemergence; format: in vivo, Avena fatua
# Procedure, shortened: as §1
# [27] = tested on: ryegrass, Italian; test: Test C preemergence; format: in vivo, Lolium multiflorum
# Procedure, shortened: as §1
# [28] = tested on: blackgrass; test: Test C preemergence; format: in vivo, Alopecurus myosuroides
# Procedure, shortened: as §1
# [29] = 500 g ai/ha, preemergence, 0 to 100 scale (0 no effect, 100 complete control)
# [30] = Preemergence, 125 g ai/ha, 0 to 100 scale, 0 no effect, 100 complete control
structure (smiles),measurement,setting,value
CCOC[C@H]1CN(C(=O)c2cc(-n3cnc(C(C)C)n3)ccc2OC)c2cccc(Cl)c2O1 [Compound 341],Wheat plant response rating,[1]; [29],30
same,"Plant response rating, Wheat",[1]; [30],30
same,"Plant response rating, Foxtail, Green","[2]; 500 g ai/ha, postemergence",70
same,"Plant response rating, Foxtail, Green","[2]; Postemergence, 125 g ai/ha",30
same,"Plant response rating, Wheat","[3]; 500 g ai/ha, postemergence",20
same,"Plant response rating, Wheat","[3]; Postemergence, 125 g ai/ha",10
same,"Plant response rating, Oat, Wild","[4]; 500 g ai/ha, postemergence",20
same,"Plant response rating, Oat, Wild","[4]; Postemergence, 125 g ai/ha",10
same,Corn plant response rating,[5]; [29],30
same,"Plant response rating, Corn",[5]; [30],20
same,"Plant response rating, Pigweed, Palmer","[6]; 500 g ai/ha, postemergence",100
same,"Plant response rating, Pigweed, Palmer","[6]; Postemergence, 125 g ai/ha",80
same,Ragweed plant response rating,[7]; [29],100
same,"Plant response rating, Ragweed",[7]; [30],80
same,"Plant response rating, Blackgrass","[8]; 500 g ai/ha, postemergence",50
same,"Plant response rating, Blackgrass","[8]; Postemergence, 125 g ai/ha",10
same,"Plant response rating, Horseweed","[9]; 500 g ai/ha, postemergence",60
same,"Plant response rating, Horseweed","[9]; Postemergence, 125 g ai/ha",60
same,"Pigweed, Palmer plant response rating",[10]; [29],100
same,"Plant response rating, Pigweed, Palmer",[10]; [30],100
same,"Plant response rating, Rice (Flood)",[11],0
same,Soybean plant response rating,[12]; [29],60
same,"Plant response rating, Soybean",[12]; [30],100
same,"Plant response rating, Corn","[13]; 500 g ai/ha, postemergence",80
same,"Plant response rating, Corn","[13]; Postemergence, 125 g ai/ha",0
same,"Plant response rating, Ryegrass, Italian","[14]; 500 g ai/ha, postemergence",60
same,"Plant response rating, Ryegrass, Italian","[14]; Postemergence, 125 g ai/ha",30
same,"Plant response rating, Sedge, Umbrella (Flood)",[15],90
same,"Plant response rating, Barnyardgrass","[16]; 500 g ai/ha, postemergence",70
same,"Plant response rating, Barnyardgrass","[16]; Postemergence, 125 g ai/ha",20
same,"Plant response rating, Ducksalad (Flood)",[17],70
same,Kochia plant response rating,[18]; [29],100
same,"Plant response rating, Kochia",[18]; [30],100
same,Barnyardgrass plant response rating,[19]; [29],100
same,"Plant response rating, Barnyardgrass",[19]; [30],90
same,"Foxtail, Green plant response rating",[20]; [29],100
same,"Plant response rating, Foxtail, Green",[20]; [30],100
same,"Plant response rating, Kochia","[21]; 500 g ai/ha, postemergence",90
same,"Plant response rating, Kochia","[21]; Postemergence, 125 g ai/ha",80
same,"Plant response rating, Galium","[22]; 500 g ai/ha, postemergence",100
same,"Plant response rating, Galium","[22]; Postemergence, 125 g ai/ha",90
same,"Plant response rating, Ragweed","[23]; 500 g ai/ha, postemergence",90
same,"Plant response rating, Ragweed","[23]; Postemergence, 125 g ai/ha",60
same,"Plant response rating, Soybean","[24]; 500 g ai/ha, postemergence",100
same,"Plant response rating, Soybean","[24]; Postemergence, 125 g ai/ha",100
same,"Plant response rating, Barnyardgrass (Flood)",[25],25
same,"Oat, Wild plant response rating",[26]; [29],80
same,"Plant response rating, Oat, Wild",[26]; [30],50
same,"Ryegrass, Italian plant response rating",[27]; [29],100
same,"Plant response rating, Ryegrass, Italian",[27]; [30],80
same,Blackgrass plant response rating,[28]; [29],80
same,"Plant response rating, Blackgrass",[28]; [30],20
